Data as given in publication PMC10486429, “Investigations Using Albumin Binders to Modify the Tissue Distribution Profile of Radiopharmaceuticals Exemplified with Folate Radioconjugates” (Cancers, 2023).
Blank lines part the entries; values can stand above or below the compound they belong to.

Test system: KB tumor-bearing athymic nude mice
Experiment: Biodistribution of 177Lu-RedFols in KB tumor-bearing mice
Type: in vivo, mouse
Experimental: Athymic nude mice (Crl:CD1-Foxn^nu) were kept on a folate-deficient rodent diet (ssniff Spezialdiäten GmbH, Soest, Germany) for at least one week prior to inoculation with the tumor cells. Biodistribution studies were performed approx. two weeks after subcutaneous inoculation with KB tumor cells (5 × 10^6 in 100 μL PBS) (Supplementary Materials Section S12). […] Data were presented as the average ± SD of n = 3−4 mice.
Purpose: Biodistribution studies were performed in KB tumor-bearing athymic nude mice (Crl:CD1-Foxnnu) in order to investigate the tissue distribution profiles of the novel radioconjugates. The aim was to compare the impact of the two different albumin binders (4-(p-iodophenyl)butanoate unit vs. 5-(p-iodophenyl)pentanoate unit), and that of the in-corporation of an AMBA linker adjacent to the albumin binder on the distribution profile of the resulting folate radioconjugates.
Methods: The methods are described in the main article. The mice were sacrificed at […]

- Tumor-to-kidney ratio, comparison among all folate radioconjugates: highest tumor-to-kidney ratio
- Blood, accumulated activity (1 h p.i.): 26 ± 3 % IA/g
- Bone, accumulated activity (1 h p.i.): 1.8 ± 0.5 % IA/g
- Intestines, accumulated activity (1 h p.i.): 2.6 ± 0.8 % IA/g
- KB tumor, accumulated activity (1 h p.i.): 8.5 ± 1.9 % IA/g
- Kidneys, accumulated activity (1 h p.i.): 8.0 ± 1.3 % IA/g
- Liver, accumulated activity (1 h p.i.): 3.7 ± 0.4 % IA/g
- Lung, accumulated activity (1 h p.i.): 11 ± 1 % IA/g
- Muscle, accumulated activity (1 h p.i.): 1.0 ± 0.1 % IA/g
- Salivary glands, accumulated activity (1 h p.i.): 5.2 ± 1.5 % IA/g
- Spleen, accumulated activity (1 h p.i.): 2.9 ± 0.4 % IA/g
- Stomach, accumulated activity (1 h p.i.): 1.9 ± 0.5 % IA/g
- Tumor-to-blood ratio (1 h p.i.): 0.33 ± 0.03
- Tumor-to-kidney ratio (1 h p.i.): 1.1 ± 0.1
- Tumor-to-liver ratio (1 h p.i.): 2.3 ± 0.4
- Blood, accumulated activity (4 h p.i.): 17 ± 1 % IA/g
- Bone, accumulated activity (4 h p.i.): 1.8 ± 0.1 % IA/g
- Intestines, accumulated activity (4 h p.i.): 2.0 ± 0.2 % IA/g
- KB tumor, accumulated activity (4 h p.i.): 18 ± 2 % IA/g
- Kidneys, accumulated activity (4 h p.i.): 7.6 ± 0.4 % IA/g
- Liver, accumulated activity (4 h p.i.): 3.0 ± 0.1 % IA/g
- Lung, accumulated activity (4 h p.i.): 8.2 ± 0.6 % IA/g
- Muscle, accumulated activity (4 h p.i.): 1.3 ± 0.1 % IA/g
- Salivary glands, accumulated activity (4 h p.i.): 4.2 ± 0.1 % IA/g
- Spleen, accumulated activity (4 h p.i.): 2.2 ± 0.2 % IA/g
- Stomach, accumulated activity (4 h p.i.): 1.5 ± 0.1 % IA/g
- Tumor-to-blood ratio (4 h p.i.): 1.1 ± 0.1
- Tumor-to-kidney ratio (4 h p.i.): 2.4 ± 0.2
- Tumor-to-liver ratio (4 h p.i.): 6.0 ± 0.8
- Blood, accumulated activity (24 h p.i.): 7.9 ± 0.7 % IA/g
- Bone, accumulated activity (24 h p.i.): 1.1 ± 0.1 % IA/g
- Intestines, accumulated activity (24 h p.i.): 0.96 ± 0.15 % IA/g
- KB tumor, accumulated activity (24 h p.i.): 39 ± 4 % IA/g
- Kidneys, accumulated activity (24 h p.i.): 12 ± 2 % IA/g
- Liver, accumulated activity (24 h p.i.): 1.9 ± 0.3 % IA/g
- Lung, accumulated activity (24 h p.i.): 4.1 ± 0.1 % IA/g
- Muscle, accumulated activity (24 h p.i.): 1.0 ± 0.1 % IA/g
- Salivary glands, accumulated activity (24 h p.i.): 4.0 ± 1.1 % IA/g
- Spleen, accumulated activity (24 h p.i.): 2.2 ± 0.1 % IA/g
- Stomach, accumulated activity (24 h p.i.): 1.1 ± 0.1 % IA/g
- Tumor-to-blood ratio (24 h p.i.): 5.0 ± 0.4
- Tumor-to-kidney ratio (24 h p.i.): 3.3 ± 0.4
- Tumor-to-liver ratio (24 h p.i.): 21 ± 1
SMILES: CN1c2c(nc(N)[nH]c2=O)NC[C@H]1CNc1ccc(C(=O)N[C@@H](CCC(=O)N[C@@H](CCCCNC(=O)CN2CCN(CC(=O)O)CCN(CC(=O)O)CCN(CC(=O)O)CC2)C(=O)N[C@@H](CCCCNC(=O)c2ccc(CNC(=O)CCCc3ccc(I)cc3)cc2)C(=O)O)C(=O)O)cc1 [[^177Lu]Lu-6R-RedFol-3, metal not drawn]

SMILES: CN1c2c(nc(N)[nH]c2=O)NC[C@H]1CNc1ccc(C(=O)N[C@@H](CCC(=O)N[C@@H](CCCCNC(=O)CN2CCN(CC(=O)O)CCN(CC(=O)O)CCN(CC(=O)O)CC2)C(=O)N[C@@H](CCCCNC(=O)c2ccc(CNC(=O)CCCCc3ccc(I)cc3)cc2)C(=O)O)C(=O)O)cc1 [[^177Lu]Lu-6R-RedFol-25, metal not drawn]
- Blood, accumulated activity (1 h p.i.): 13 ± 3 % IA/g
- Bone, accumulated activity (1 h p.i.): 1.5 ± 0.3 % IA/g
- Intestines, accumulated activity (1 h p.i.): 1.7 ± 0.3 % IA/g
- KB tumor, accumulated activity (1 h p.i.): 15 ± 1 % IA/g
- Kidneys, accumulated activity (1 h p.i.): 22 ± 3 % IA/g
- Liver, accumulated activity (1 h p.i.): 2.3 ± 0.6 % IA/g
- Lung, accumulated activity (1 h p.i.): 5.8 ± 1.7 % IA/g
- Muscle, accumulated activity (1 h p.i.): 1.4 ± 0.1 % IA/g
- Salivary glands, accumulated activity (1 h p.i.): 4.7 ± 3.3 % IA/g
- Spleen, accumulated activity (1 h p.i.): 1.7 ± 0.3 % IA/g
- Stomach, accumulated activity (1 h p.i.): 1.7 ± 0.2 % IA/g
- Tumor-to-blood ratio (1 h p.i.): 1.2 ± 0.4
- Tumor-to-kidney ratio (1 h p.i.): 0.67 ± 0.07
- Tumor-to-liver ratio (1 h p.i.): 6.8 ± 2.4
- Blood, accumulated activity (4 h p.i.): 6.1 ± 0.5 % IA/g
- Bone, accumulated activity (4 h p.i.): 1.1 ± 0.1 % IA/g
- Intestines, accumulated activity (4 h p.i.): 0.78 ± 0.15 % IA/g
- KB tumor, accumulated activity (4 h p.i.): 30 ± 3 % IA/g
- Kidneys, accumulated activity (4 h p.i.): 39 ± 2 % IA/g
- Liver, accumulated activity (4 h p.i.): 2.1 ± 0.2 % IA/g
- Lung, accumulated activity (4 h p.i.): 3.4 ± 0.1 % IA/g
- Muscle, accumulated activity (4 h p.i.): 1.3 ± 0.2 % IA/g
- Salivary glands, accumulated activity (4 h p.i.): 4.8 ± 3.2 % IA/g
- Spleen, accumulated activity (4 h p.i.): 1.2 ± 0.1 % IA/g
- Stomach, accumulated activity (4 h p.i.): 1.1 ± 0.1 % IA/g
- Tumor-to-blood ratio (4 h p.i.): 4.9 ± 0.2
- Tumor-to-kidney ratio (4 h p.i.): 0.78 ± 0.11
- Tumor-to-liver ratio (4 h p.i.): 14 ± 1
- Blood, accumulated activity (24 h p.i.): 0.16 ± 0.08 % IA/g
- Bone, accumulated activity (24 h p.i.): 0.50 ± 0.12 % IA/g
- Intestines, accumulated activity (24 h p.i.): 0.26 ± 0.06 % IA/g
- KB tumor, accumulated activity (24 h p.i.): 34 ± 5 % IA/g
- Kidneys, accumulated activity (24 h p.i.): 48 ± 4 % IA/g
- Liver, accumulated activity (24 h p.i.): 1.5 ± 0.2 % IA/g
- Lung, accumulated activity (24 h p.i.): 0.78 ± 0.23 % IA/g
- Muscle, accumulated activity (24 h p.i.): 1.1 ± 0.6 % IA/g
- Salivary glands, accumulated activity (24 h p.i.): 3.1 ± 2.0 % IA/g
- Spleen, accumulated activity (24 h p.i.): 0.60 ± 0.04 % IA/g
- Stomach, accumulated activity (24 h p.i.): 0.44 ± 0.06 % IA/g
- Tumor-to-blood ratio (24 h p.i.): 247 ± 101
- Tumor-to-kidney ratio (24 h p.i.): 0.72 ± 0.15
- Tumor-to-liver ratio (24 h p.i.): 23 ± 7
